Source: patent publication US12194039B2, “Methods of treating heart failure by administering omecamtiv mecarbil” (Cytokinetics, Inc., priority 2020, dated 2025)
Entries after “also recorded” stand apart in the source; their conditions may differ. Like-named read-outs stand apart in the source and are kept apart here.

How the values were obtained:
[1] = tested on: patients with heart failure and reduced ejection fraction; type: in vivo, human; settings: for Creatinine, change from baseline, mean / Heart rate, change from baseline, mean / Potassium, change from baseline, mean / Systolic blood pressure, change from baseline, mean / Troponin, change from baseline, median: N = 4110
Experimental: All eligible participants were randomized 1:1 to oral administration of either placebo or omecamtiv mecarbil (pharmacokinetic-guided dosing: 25, 37.5 or 50 mg) twice daily. Pre-dose plasma concentrations of omecamtiv mecarbil were measured at weeks 2 and 6 with respective dose adjustments on weeks 4 and 8. The patient and investigator were blinded to the plasma concentrations and dispensed dose. The full schedule of assessments is provided in the protocol available at NEJM.org. Study drug was temporarily withheld if the participant experienced clinical signs or symptoms consistent with acute myocardial infarction or ischemia.
Other outcomes of interest included the effects of omecamtiv mecarbil on vital signs and selected laboratory values (Table 3).
Continuous variables were summarized as means±standard deviations (SD) or medians and first and third quartiles (Q1, Q3), as appropriate. Categorical variables were summarized as counts and percentages. […] The change from baseline on NT-proBNP analysis included all participants who underwent randomization. The difference column is the exponentiated change from baseline on the log scale using a mixed model containing the log baseline value, region, baseline eGFR, scheduled visit, treatment group and interaction of treatment with scheduled visit.

[2] = tested on: patients with heart failure with reduced ejection fraction
From the text: The primary outcome was a composite of the time to a heart failure event or cardiovascular death, whichever occurred first. A heart failure event was defined as an urgent clinic visit, emergency department visit or hospitalization for subjectively and objectively worsening heart failure leading to treatment intensification beyond changed oral diuretic therapy. Secondary outcomes were: the time to cardiovascular death; change in KCCQ Total Symptom Score (TSS) from baseline to Week 24 (scale from 0 to 100; higher score indicates fewer symptoms); time to first heart failure hospitalization; and time to all-cause death. All deaths, HF events, major cardiac ischemic events (myocardial infarction/unstable angina hospitalization, and coronary revascularization), and strokes were adjudicated by a blinded external Clinical Events Committee (Duke Clinical Research Institute) using standardized definitions.

[3] = tested on: patients with or without AFF; type: in vivo; settings: for Troponin I increase: at 6 weeks; for Treatment effect on primary outcome by AFF at baseline: multivariable covariate-interaction model
[4] = Effect of food on OM systemic exposure; type: in vivo, human; settings: healthy subjects; result in words
[5] = Pharmacokinetics in patients with hepatic impairment; type: in vivo, human; settings: single dose 25 mg; mild (Child-Pugh A) or moderate (Child-Pugh B) hepatic impairment; result in words
Experimental: The pharmacokinetics of a single dose of OM 25 mg were evaluated in patients with mild (Child-Pugh A) or moderate (Child-Pugh B) hepatic impairment. The pharmacokinetics (Cmax and AUC) of OM in patients with mild or moderate hepatic impairment were similar to those in patients with normal hepatic function.

[6] = biological target: CYP2D6 (Homo sapiens, UniProt P10635); test: Metabolism of OM by CYP enzymes; type: in vitro ADME; settings: result in words; listed as OM
From the text: (§1) Clearance of OM after oral administration was primarily through metabolism in the liver. […] Following oral administration of radiolabeled OM to healthy subjects, approximately 49% of the dose was excreted in urine (primarily as metabolites with 8% of parent compound recovered) and 38% in feces (primarily as unchanged drug).

[7] = biological target: CYP3A4 (Homo sapiens, UniProt P08684); test: Metabolism of OM by CYP enzymes; type: in vitro ADME; settings: result in words
From the text: as §1

[8] = biological target: T1, P-gp (Homo sapiens, UniProt P08183); test: Transporter substrate assessment; type: in vitro ADME; settings: result in words
[9] = biological target: T1, P-gp; test: In vitro inhibition by OM; type: in vitro ADME; settings: result in words
[10] = tested on: CYP3A4; test: In vitro induction by OM; type: in vitro ADME; settings: result in words
From the text: (§2) OM may be administered with drugs that are substrates of CYP3A4, CYP2C8, P-gp or BCRP.

[11] = biological target: T2, CYP2C8 (Homo sapiens, UniProt P10632); test: Clinical studies and physiologically based pharmacokinetic modeling of OM as perpetrator; type: in vivo; design: from tissue; settings: clinical studies and PBPK modeling; result in words
T2 sequence (P10632 1-490): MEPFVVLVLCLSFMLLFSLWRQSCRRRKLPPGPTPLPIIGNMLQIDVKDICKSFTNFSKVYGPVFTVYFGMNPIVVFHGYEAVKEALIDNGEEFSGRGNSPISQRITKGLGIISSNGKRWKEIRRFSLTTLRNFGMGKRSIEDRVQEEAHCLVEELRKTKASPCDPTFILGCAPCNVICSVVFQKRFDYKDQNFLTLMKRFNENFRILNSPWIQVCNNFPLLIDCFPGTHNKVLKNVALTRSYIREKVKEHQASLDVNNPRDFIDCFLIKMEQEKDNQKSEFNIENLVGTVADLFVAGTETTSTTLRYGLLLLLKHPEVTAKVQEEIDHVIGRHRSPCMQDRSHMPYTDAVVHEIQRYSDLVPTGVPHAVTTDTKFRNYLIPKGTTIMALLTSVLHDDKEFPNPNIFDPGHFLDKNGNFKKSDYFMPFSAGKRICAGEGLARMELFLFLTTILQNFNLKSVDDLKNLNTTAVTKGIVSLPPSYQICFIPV
From the text: as §2

CYP3A4 (Homo sapiens, UniProt P08684), sequence (P08684 whole entry): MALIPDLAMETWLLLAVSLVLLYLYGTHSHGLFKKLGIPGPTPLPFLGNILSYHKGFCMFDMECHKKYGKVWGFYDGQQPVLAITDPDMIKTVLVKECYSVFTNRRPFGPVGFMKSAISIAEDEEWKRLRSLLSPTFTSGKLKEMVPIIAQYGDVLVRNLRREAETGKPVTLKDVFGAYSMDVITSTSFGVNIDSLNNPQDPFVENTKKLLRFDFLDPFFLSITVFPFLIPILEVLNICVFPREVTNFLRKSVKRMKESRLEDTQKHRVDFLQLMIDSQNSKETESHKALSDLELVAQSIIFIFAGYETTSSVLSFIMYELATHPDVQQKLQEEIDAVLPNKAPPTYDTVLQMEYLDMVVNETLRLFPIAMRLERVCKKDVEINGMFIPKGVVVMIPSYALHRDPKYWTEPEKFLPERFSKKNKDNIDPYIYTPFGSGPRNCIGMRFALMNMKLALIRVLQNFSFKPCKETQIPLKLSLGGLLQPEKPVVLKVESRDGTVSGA
T1 sequence (P08183 whole entry): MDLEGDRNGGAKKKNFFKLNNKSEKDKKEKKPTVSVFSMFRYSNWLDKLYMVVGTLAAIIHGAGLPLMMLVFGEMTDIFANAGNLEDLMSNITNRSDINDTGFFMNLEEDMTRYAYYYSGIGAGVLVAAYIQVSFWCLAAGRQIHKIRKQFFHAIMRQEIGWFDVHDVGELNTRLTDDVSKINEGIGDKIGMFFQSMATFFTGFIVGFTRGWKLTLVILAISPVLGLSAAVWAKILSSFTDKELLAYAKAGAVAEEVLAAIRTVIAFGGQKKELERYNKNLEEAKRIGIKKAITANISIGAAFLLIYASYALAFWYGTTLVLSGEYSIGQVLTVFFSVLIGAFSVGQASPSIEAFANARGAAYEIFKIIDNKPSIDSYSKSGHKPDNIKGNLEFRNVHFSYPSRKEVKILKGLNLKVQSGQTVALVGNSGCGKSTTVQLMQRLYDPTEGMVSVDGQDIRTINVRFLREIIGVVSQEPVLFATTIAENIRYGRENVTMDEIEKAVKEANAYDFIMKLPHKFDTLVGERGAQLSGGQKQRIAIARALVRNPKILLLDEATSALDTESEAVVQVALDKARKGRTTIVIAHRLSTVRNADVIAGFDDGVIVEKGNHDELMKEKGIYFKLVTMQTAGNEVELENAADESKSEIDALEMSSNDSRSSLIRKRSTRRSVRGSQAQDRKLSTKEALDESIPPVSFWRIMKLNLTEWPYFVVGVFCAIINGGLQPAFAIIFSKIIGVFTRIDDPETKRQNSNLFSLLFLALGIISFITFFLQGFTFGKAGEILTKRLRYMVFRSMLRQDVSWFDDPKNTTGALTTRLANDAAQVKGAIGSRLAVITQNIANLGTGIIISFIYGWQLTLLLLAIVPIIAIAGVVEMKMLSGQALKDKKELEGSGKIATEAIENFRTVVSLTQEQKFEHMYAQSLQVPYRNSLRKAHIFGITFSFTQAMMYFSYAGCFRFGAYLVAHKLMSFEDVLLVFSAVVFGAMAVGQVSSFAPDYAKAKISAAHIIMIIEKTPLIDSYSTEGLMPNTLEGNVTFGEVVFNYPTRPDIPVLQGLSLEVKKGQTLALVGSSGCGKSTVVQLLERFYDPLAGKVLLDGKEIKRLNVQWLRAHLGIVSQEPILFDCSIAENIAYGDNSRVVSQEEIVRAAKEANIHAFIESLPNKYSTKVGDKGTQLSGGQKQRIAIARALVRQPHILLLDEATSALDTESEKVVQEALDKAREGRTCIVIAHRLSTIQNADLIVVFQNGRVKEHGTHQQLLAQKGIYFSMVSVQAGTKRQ
CYP2D6, sequence (P10635 whole entry): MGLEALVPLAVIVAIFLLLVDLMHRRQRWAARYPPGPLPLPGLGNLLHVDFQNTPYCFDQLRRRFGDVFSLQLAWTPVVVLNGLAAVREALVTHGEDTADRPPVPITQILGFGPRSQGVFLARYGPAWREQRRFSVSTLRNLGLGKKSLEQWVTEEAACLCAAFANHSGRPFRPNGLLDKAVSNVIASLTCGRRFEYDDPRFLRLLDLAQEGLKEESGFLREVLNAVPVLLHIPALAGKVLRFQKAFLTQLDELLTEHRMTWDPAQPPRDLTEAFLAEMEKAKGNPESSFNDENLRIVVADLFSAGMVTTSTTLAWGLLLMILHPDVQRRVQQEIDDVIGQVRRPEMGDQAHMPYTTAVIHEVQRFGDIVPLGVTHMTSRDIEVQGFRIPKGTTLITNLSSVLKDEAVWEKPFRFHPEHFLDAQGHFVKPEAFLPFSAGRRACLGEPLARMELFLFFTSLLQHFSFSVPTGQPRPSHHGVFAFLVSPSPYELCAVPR

COC(=O)N1CCN(Cc2cccc(NC(=O)Nc3ccc(C)nc3)c2F)CC1 [omecamtiv mecarbil]
Creatinine, change from baseline, difference vs placebo ([1]; Week 24): 0.007 mg/dL
Heart rate, change from baseline, difference vs placebo ([1]; Week 24): −1.61 bpm
Potassium, change from baseline, difference vs placebo ([1]; Week 24): 0.002 mmol/L
Systolic blood pressure, change from baseline, difference vs placebo ([1]; Week 24): −0.13 mmHg
Creatinine, change from baseline, mean ([1]; Week 24): 0.03 mg/dL
Heart rate, change from baseline, mean ([1]; Week 24): −2.1 bpm
Potassium, change from baseline, mean ([1]; Week 24): -0.01 mmol/L
Systolic blood pressure, change from baseline, mean ([1]; Week 24): 1.4 mmHg
Troponin, change from baseline, median ([1]; Week 24): 0.004 ng/mL
NT-proBNP, change from baseline, median ([1]; Week 24, all randomized participants): -251 pg/mL
Troponin, change from baseline, difference vs placebo ([1]; Week 24, lower limit of quantification 0.010 ng/mL): 0.004 ng/mL
NT-proBNP, exponentiated change from baseline on the log scale, omecamtiv mecarbil vs placebo ([1]; Week 24, mixed model): 0.90
NT-proBNP concentrations compared to placebo ([1]; Week 24, result in words): significantly decreased
Creatinine, change from baseline, difference vs placebo ([1]; Week 48): 0.010 mg/dL
Heart rate, change from baseline, difference vs placebo ([1]; Week 48): −1.75 bpm
Potassium, change from baseline, difference vs placebo ([1]; Week 48): -0.007 mmol/L
Systolic blood pressure, change from baseline, difference vs placebo ([1]; Week 48): 0.16 mmHg
Troponin, change from baseline, difference vs placebo ([1]; Week 48): 0.002 ng/mL
Creatinine, change from baseline, mean ([1]; Week 48): 0.06 mg/dL
Heart rate, change from baseline, mean ([1]; Week 48): −2.0 bpm
Potassium, change from baseline, mean ([1]; Week 48): -0.03 mmol/L
Systolic blood pressure, change from baseline, mean ([1]; Week 48): 2.0 mmHg
Troponin, change from baseline, median ([1]; Week 48): 0.002 ng/mL
Heart rate compared to placebo ([1]; at 24 and 48 weeks, result in words): small but significant decrease
Change in systolic blood pressure, omecamtiv mecarbil vs placebo ([1]; at 24 or 48 weeks, result in words): no significant difference
Potassium or creatinine concentrations compared to placebo ([1]; during the course of the trial, result in words): no change
Reduction in fatal stroke ([2]; all patients randomized): 42%
Reduction in the risk of first fatal or non-fatal stroke ([2]; all patients randomized): 35%
Adjudicated type of first stroke event: Hemorrhagic, % ([2]; in vivo): 0.1%
Adjudicated type of first stroke event: Ischemic (Non-hemorrhagic), % ([2]; in vivo): 1.6%
Adjudicated type of first stroke event: Undetermined, % ([2]; in vivo): 0.1%
Adjudicated type of first stroke event: Ischemic with hemorrhagic transformation, % ([2]; n = 4110): 0.1%
New onset atrial fibrillation/flutter, hazard ratio ([2]; no AF/F at screening): 0.70
New onset atrial fibrillation/flutter, hazard ratio ([2]; no history of AF/F): 0.60
Non-fatal and fatal stroke, hazard ratio ([2]; no history of atrial fibrillation): 0.81
Non-fatal and fatal stroke, hazard ratio ([2]; no history of stroke): 0.78
Primary endpoint, hazard ratio ([2]; patients with a history of stroke, vs placebo): 0.86
Primary endpoint, hazard ratio ([2]; patients with no stroke, vs placebo): 0.93
Time to first stroke event ([2]; result in words): significantly reduced
Fatal stroke, hazard ratio ([2]; vs placebo): 0.56
Non-fatal and fatal stroke, hazard ratio ([2]; with history of atrial fibrillation): 0.49
Non-fatal and fatal stroke, hazard ratio ([2]; with history of stroke): 0.23
Troponin I increase ([3]; patients in AFF at baseline not taking digoxin): +45%
Troponin I increase ([3]; patients in AFF at baseline taking digoxin): +29%
Treatment effect on primary outcome by AFF at baseline ([3]; result in words): greater benefit observed in patients not in AFF
Treatment effect on primary outcome by AFF at baseline ([3]; result in words, listed as OM): patients without AFF deriving greater benefit
Serious adverse events, events ([3]; per 2974 patients, over the course of the study (FIG. 21E)): 55 events
Treatment effect modification by AFF according to digoxin use ([3]; result in words): significantly more pronounced in digoxin users than in non-users
Effect of a high-fat, high-calorie meal on systemic exposure [4]: no clinically significant effect
Pharmacokinetics (Cmax and AUC) versus normal hepatic function [5]: similar
Metabolism by CYP2D6 [6]: extensively metabolized; also recorded: metabolized in vitro
Metabolism by CYP3A4 [7]: substrate
Metabolism by CYP3A4 ([7]; listed as OM): extensively metabolized; also recorded: metabolized in vitro
Substrate of P-gp [8]: substrate
Inhibition of P-gp [9]: inhibitor
Induction of CYP3A4 [10]: inducer
Inhibition of CYP2C8 [11]: weak inhibitor
